Experimental data taken from ChEMBL document CHEMBL5113401, “Novel 1,3,4-oxadiazole chalcogen analogues: Synthesis and cytotoxic activity” (Eur J Med Chem, 2022).
The source made the active and inactive calls. No cut-off for these calls is given here.

What follows are molecules tested on HeLa (assay: Induction of cell cycle arrest in human HeLa cells assessed as accumulation of cells at S phase at 1 uM incubated for 18 hrs by FACS flow cytometry analysis (reference value: 17.41 +/- 1.16 %)). Conditions: not given.
Type: functional

| Compound | Activity [%] |
| --- | --- |
| Cc1[nH]c2c(c1-c1nnc(-c3ccccc3Cl)s1)Cc1ccccc1-2 | 9.52 |
| Cc1[nH]c2c(c1-c1nnc(-c3ccccc3)s1)Cc1ccccc1-2 | 20.62 |

The molecules below were run on HeLa (assay: Induction of cell cycle arrest in human HeLa cells assessed as accumulation of cells at G1 phase at 1 uM incubated for 6 hrs by FACS flow cytometry analysis (reference value: 69.94 +/- 1.71 %)). Conditions: not given.
Type: functional

| Compound | Activity [%] |
| --- | --- |
| Cc1[nH]c2c(c1-c1nnc(-c3ccccc3Cl)s1)Cc1ccccc1-2 | 27.25 |
| Cc1[nH]c2c(c1-c1nnc(-c3ccccc3)s1)Cc1ccccc1-2 | 26.59 |

These molecules were tested on HeLa (assay: Induction of cell cycle arrest in human HeLa cells assessed as accumulation of cells at S phase at 1 uM incubated for 6 hrs by FACS flow cytometry analysis (reference value: 17.41 +/- 0.96 %)). Conditions: not given.
Type: functional

| Compound | Activity [%] |
| --- | --- |
| Cc1[nH]c2c(c1-c1nnc(-c3ccccc3Cl)s1)Cc1ccccc1-2 | 68.91 |
| Cc1[nH]c2c(c1-c1nnc(-c3ccccc3)s1)Cc1ccccc1-2 | 40.38 |

These molecules were tested on HeLa (assay: Induction of apoptosis in human HeLa cells assessed as early apoptotic cells at 1 uM incubated for 24 hrs by Annexin V-FITC/7-AAD staining based flow cytometric analysis (reference value: 2.7 +/- 0.424 %)). Conditions: not given.
Type: functional

| Compound | Activity [%] |
| --- | --- |
| Cc1[nH]c2c(c1-c1nnc(-c3ccccc3Cl)s1)Cc1ccccc1-2 | 31.9 |
| Cc1[nH]c2c(c1-c1nnc(-c3ccccc3)s1)Cc1ccccc1-2 | 9.2 |

These molecules were tested on PC-3 (assay: Induction of cell cycle arrest in human PC-3 cells assessed as accumulation of cells at G2/M phase at 1 uM incubated for 12 hrs by FACS flow cytometry analysis (reference value: 20.74 +/- 1.95 %)). Conditions: not given.
Type: functional

| Compound | Activity [%] |
| --- | --- |
| Cc1[nH]c2c(c1-c1nnc(-c3ccccc3Cl)s1)Cc1ccccc1-2 | 92.74 |
| Cc1[nH]c2c(c1-c1nnc(-c3ccccc3)s1)Cc1ccccc1-2 | 60.84 |

Each molecule was assayed on PC-3 (assay: Induction of cell cycle arrest in human PC-3 cells assessed as accumulation of cells at S phase at 1 uM incubated for 12 hrs by FACS flow cytometry analysis (reference value: 35.06 +/- 1.36 %)). Conditions: not given.
Type: functional

| Compound | Activity [%] |
| --- | --- |
| Cc1[nH]c2c(c1-c1nnc(-c3ccccc3Cl)s1)Cc1ccccc1-2 | 5.55 |
| Cc1[nH]c2c(c1-c1nnc(-c3ccccc3)s1)Cc1ccccc1-2 | 23.79 |

These molecules were tested on PC-3 (assay: Antiproliferative activity against human PC-3 cells assessed as inhibition of cell growth incubated for 48 hrs by XTT assay). Conditions: PC-3, 48 h.
Type: functional, cell-based

| Compound | IC50 [nM] |
| --- | --- |
| Cc1[nH]c2c(c1-c1nnc(-c3ccccc3Cl)s1)Cc1ccccc1-2 | 176 |
| Cc1[nH]c2c(c1-c1nnc(-c3ccccc3)s1)Cc1ccccc1-2 | 380 |

The molecules below were run against T1, Tubulin (Homo sapiens) (UniProt P68371+Q9H4B7+P0DPH7+P68366+Q13509+Q71U36+P04350+Q3ZCM7+P07437+P68363+Q9BQE3+Q6PEY2+Q13885+Q9BVA1+Q9BUF5) (assay: Inhibition of tubulin polymerization in human HeLa cells assessed as irregular cell morphology at 0.5 uM incubated for 6 hrs by DAPI staining based fluorescence microscopic analysis). Conditions: not given.

| Compound | inhibition |
| --- | --- |
| Cc1[nH]c2c(c1-c1nnc(-c3ccccc3Cl)s1)Cc1ccccc1-2 | Active |
| Cc1[nH]c2c(c1-c1nnc(-c3ccccc3)s1)Cc1ccccc1-2 | Active |

Each molecule was assayed on MCF7 (assay: Antiproliferative activity against human MCF7 cells assessed as inhibition of cell growth incubated for 48 hrs by XTT assay). Conditions: MCF7, 48 h.
Type: functional, cell-based

| Compound | IC50 [nM] |
| --- | --- |
| Cc1[nH]c2c(c1-c1nnc(-c3ccccc3Cl)s1)Cc1ccccc1-2 | 468 |
| Cc1[nH]c2c(c1-c1nnc(-c3ccccc3)s1)Cc1ccccc1-2 | 555 |

These molecules were tested on PC-3 (assay: Induction of cell cycle arrest in human PC-3 cells assessed as accumulation of cells at S phase at 1 uM incubated for 6 hrs by FACS flow cytometry analysis (reference value: 35.06 +/- 1.85 %)). Conditions: not given.
Type: functional

| Compound | Activity [%] |
| --- | --- |
| Cc1[nH]c2c(c1-c1nnc(-c3ccccc3Cl)s1)Cc1ccccc1-2 | 51.2 |
| Cc1[nH]c2c(c1-c1nnc(-c3ccccc3)s1)Cc1ccccc1-2 | 21.51 |

These molecules were tested on PC-3 (assay: Induction of cell cycle arrest in human PC-3 cells assessed as accumulation of cells at G2/M phase at 1 uM incubated for 6 hrs by FACS flow cytometry analysis (reference value: 20.74 +/- 1.93 %)). Conditions: not given.
Type: functional

| Compound | Activity [%] |
| --- | --- |
| Cc1[nH]c2c(c1-c1nnc(-c3ccccc3Cl)s1)Cc1ccccc1-2 | 37.68 |
| Cc1[nH]c2c(c1-c1nnc(-c3ccccc3)s1)Cc1ccccc1-2 | 34.04 |

What follows are molecules tested on HeLa (assay: Induction of apoptosis in human HeLa cells assessed as late apoptotic cells at 1 uM incubated for 24 hrs by Annexin V-FITC/7-AAD staining based flow cytometric analysis (reference value: 11.1 +/- 0.778 %)). Conditions: not given.
Type: functional

| Compound | Activity [%] |
| --- | --- |
| Cc1[nH]c2c(c1-c1nnc(-c3ccccc3Cl)s1)Cc1ccccc1-2 | 17.4 |
| Cc1[nH]c2c(c1-c1nnc(-c3ccccc3)s1)Cc1ccccc1-2 | 22.7 |

The molecules below were run on HeLa (assay: Induction of cell cycle arrest in human HeLa cells assessed as accumulation of cells at G2/M phase at 1 uM incubated for 18 hrs by FACS flow cytometry analysis (reference value: 12.66 +/- 0.92 %)). Conditions: not given.
Type: functional

| Compound | Activity [%] |
| --- | --- |
| Cc1[nH]c2c(c1-c1nnc(-c3ccccc3Cl)s1)Cc1ccccc1-2 | 88.99 |
| Cc1[nH]c2c(c1-c1nnc(-c3ccccc3)s1)Cc1ccccc1-2 | 56.51 |

These molecules were tested on HeLa (assay: Induction of cell cycle arrest in human HeLa cells assessed as accumulation of cells at G1 phase at 1 uM incubated for 18 hrs by FACS flow cytometry analysis (reference value: 69.94 +/- 1.25 %)). Conditions: not given.
Type: functional

| Compound | Activity [%] |
| --- | --- |
| Cc1[nH]c2c(c1-c1nnc(-c3ccccc3Cl)s1)Cc1ccccc1-2 | 1.49 |
| Cc1[nH]c2c(c1-c1nnc(-c3ccccc3)s1)Cc1ccccc1-2 | 22.86 |

The molecules below were run on PC-3 (assay: Induction of cell cycle arrest in human PC-3 cells assessed as accumulation of cells at G1 phase at 1 uM incubated for 12 hrs by FACS flow cytometry analysis (reference value: 44.2 +/- 2.01 %)). Conditions: not given.
Type: functional

| Compound | Activity [%] |
| --- | --- |
| Cc1[nH]c2c(c1-c1nnc(-c3ccccc3Cl)s1)Cc1ccccc1-2 | 1.71 |
| Cc1[nH]c2c(c1-c1nnc(-c3ccccc3)s1)Cc1ccccc1-2 | 15.37 |

What follows are molecules tested on HeLa (assay: Inhibition of colony formation in human HeLa cells at IC50 incubated for 2 weeks with culture medium replacement for every 3 days by crystal violet staining based analysis). Conditions: not given.
Type: functional, cell-based

| Compound | inhibition |
| --- | --- |
| Cc1[nH]c2c(c1-c1nnc(-c3ccccc3Cl)s1)Cc1ccccc1-2 | Active |
| Cc1[nH]c2c(c1-c1nnc(-c3ccccc3)s1)Cc1ccccc1-2 | Active |

Each molecule was assayed on HeLa (assay: Antiproliferative activity against human HeLa cells assessed as inhibition of cell growth incubated for 48 hrs by XTT assay). Conditions: not given.
Type: functional, cell-based

| Compound | IC50 [nM] |
| --- | --- |
| Cc1[nH]c2c(c1-c1nnc(-c3ccccc3Cl)s1)Cc1ccccc1-2 | 145 |
| Cc1[nH]c2c(c1-c1nnc(-c3ccccc3)s1)Cc1ccccc1-2 | 324 |

The molecules below were run on PC-3 (assay: Induction of cell cycle arrest in human PC-3 cells assessed as accumulation of cells at G1 phase at 1 uM incubated for 6 hrs by FACS flow cytometry analysis (reference value: 44.2 +/- 2.21 %)). Conditions: not given.
Type: functional

| Compound | Activity [%] |
| --- | --- |
| Cc1[nH]c2c(c1-c1nnc(-c3ccccc3Cl)s1)Cc1ccccc1-2 | 11.13 |
| Cc1[nH]c2c(c1-c1nnc(-c3ccccc3)s1)Cc1ccccc1-2 | 44.45 |

Each molecule was assayed against T1, Tubulin (Homo sapiens) (assay: Inhibition of tubulin polymerization in human HeLa cells assessed as aberrations in mitotic spindle and nucleus at 0.5 uM incubated for 6 hrs by DAPI staining based fluorescence microscopic analysis). Conditions: not given.
Type: cell-based

| Compound | inhibition |
| --- | --- |
| Cc1[nH]c2c(c1-c1nnc(-c3ccccc3Cl)s1)Cc1ccccc1-2 | Active |
| Cc1[nH]c2c(c1-c1nnc(-c3ccccc3)s1)Cc1ccccc1-2 | Active |

What follows are molecules tested on HeLa (assay: Induction of cell cycle arrest in human HeLa cells assessed as accumulation of cells at G2/M phase at 1 uM incubated for 6 hrs by FACS flow cytometry analysis (reference value: 12.66 +/- 0.88 %)). Conditions: not given.
Type: functional

| Compound | Activity [%] |
| --- | --- |
| Cc1[nH]c2c(c1-c1nnc(-c3ccccc3Cl)s1)Cc1ccccc1-2 | 3.84 |
| Cc1[nH]c2c(c1-c1nnc(-c3ccccc3)s1)Cc1ccccc1-2 | 33.03 |

Each molecule was assayed on HeLa (assay: Induction of apoptosis in human HeLa cells assessed as viable cells at 1 uM incubated for 24 hrs by Annexin V-FITC/7-AAD staining based flow cytometric analysis (reference value: 85.6 +/- 1.061%)). Conditions: read-out: Activity.
Type: functional

| Compound | viability at 1 µM [%] |
| --- | --- |
| Cc1[nH]c2c(c1-c1nnc(-c3ccccc3Cl)s1)Cc1ccccc1-2 | 44.8 |
| Cc1[nH]c2c(c1-c1nnc(-c3ccccc3)s1)Cc1ccccc1-2 | 63.8 |

What follows are molecules tested against T1, Tubulin (Homo sapiens) (assay: Inhibition of tubulin polymerization in human HeLa cells assessed as abnormal microtubule network at 0.5 uM incubated for 6 hrs by DAPI staining based fluorescence microscopic analysis). Conditions: not given.
Type: cell-based

| Compound | inhibition |
| --- | --- |
| Cc1[nH]c2c(c1-c1nnc(-c3ccccc3Cl)s1)Cc1ccccc1-2 | Active |
| Cc1[nH]c2c(c1-c1nnc(-c3ccccc3)s1)Cc1ccccc1-2 | Active |

Each molecule was assayed on NB1 (assay: Cytotoxicity against human NB1 cells immortalized with hTERT plasmid assessed as reduction in cell viability at 1 to 2 uM incubated for 48 hrs by XTT assay). Conditions: nb1, 48 h, dose 1-2 µM.
Type: toxicity, cell-based

| Compound | Activity |
| --- | --- |
| Cc1[nH]c2c(c1-c1nnc(-c3ccccc3Cl)s1)Cc1ccccc1-2 | Non-Toxic |
| Cc1[nH]c2c(c1-c1nnc(-c3ccccc3)s1)Cc1ccccc1-2 | Non-Toxic |

The molecules below were run on HFF-1 (assay: Cytotoxicity against HFF-1 cells assessed as reduction in cell viability at 1 to 2 uM incubated for 48 hrs by XTT assay). Conditions: human, hff-1, 48 h, dose 1-2 µM.
Type: toxicity, cell-based

| Compound | Activity |
| --- | --- |
| Cc1[nH]c2c(c1-c1nnc(-c3ccccc3Cl)s1)Cc1ccccc1-2 | Non-Toxic |
| Cc1[nH]c2c(c1-c1nnc(-c3ccccc3)s1)Cc1ccccc1-2 | Non-Toxic |

The molecules below were run on PC-3 (assay: Inhibition of colony formation in human PC-3 cells at IC50 incubated for 2 weeks with culture medium replacement for every 3 days by crystal violet staining based analysis). Conditions: not given.
Type: functional, cell-based

| Compound | inhibition |
| --- | --- |
| Cc1[nH]c2c(c1-c1nnc(-c3ccccc3Cl)s1)Cc1ccccc1-2 | Active |
| Cc1[nH]c2c(c1-c1nnc(-c3ccccc3)s1)Cc1ccccc1-2 | Active |

The molecules below were run on HeLa (assay: Induction of apoptosis in human HeLa cells assessed as dead cells at 1 uM incubated for 24 hrs by Annexin V-FITC/7-AAD staining based flow cytometric analysis (reference value: 0.6 +/- 0.707 %)). Conditions: not given.
Type: functional

| Compound | Activity [%] |
| --- | --- |
| Cc1[nH]c2c(c1-c1nnc(-c3ccccc3Cl)s1)Cc1ccccc1-2 | 5.9 |
| Cc1[nH]c2c(c1-c1nnc(-c3ccccc3)s1)Cc1ccccc1-2 | 4.3 |
